In ChEMBL document CHEMBL5154770, “Discovery of novel ataxia telangiectasia mutated (ATM) kinase modulators: Computational simulation, biological evaluation and cancer combinational chemotherapy study” (Eur J Med Chem, 2022):
The source made the active and inactive calls. The calls are words filed in the database; no cut-off is given here.

Experiments:
MCF7 [1] = experiment: Cytotoxicity against human MCF7 cells measured after 6 days in presence of 5 uM 2(((24(2,4-dichlorobenzyl)oxy)naphthalen-1-yl)methyl)amino)ethan-1-ol by SRB assay; format: functional, cell-based; conditions: MCF7, 144 h
NCI-H1299 [2] = experiment: Synergistic cytotoxicity against human NCI-H1299 cells assessed as combination index measured in presence of 50 nM AZD0156 after 6 days by SRB assay; format: functional; conditions: time 6 day
SW480 [3] = experiment: Antagonistic cytotoxicity against human SW480 cells measured after 3 days in presence of 5 uM 2(((24(2,4-dichlorobenzyl)oxy)naphthalen-1-yl)methyl)amino)ethan-1-ol by SRB assay; format: functional, cell-based; conditions: SW480, 72 h
SW480 [4] = experiment: Antagonistic cytotoxicity against human SW480 cells assessed as combination index measured after 3 days in presence of 50 nM AZD0156 by SRB assay; format: functional; conditions: time 3 day
SW480 [5] = experiment: Antagonistic cytotoxicity against human SW480 cells assessed as combination index measured after 3 days in presence of 5 uM KU55933 by SRB assay; format: functional; conditions: time 3 day
MCF7 [6] = experiment: Antagonistic cytotoxicity against human MCF7 cells assessed as combination index measured after 2 days in presence of 5 uM KU60019 by SRB assay; format: functional; conditions: time 2 day
SW480 [7] = experiment: Antagonistic cytotoxicity against human SW480 cells measured after 3 days in presence of 5 uM KU60019 by SRB assay; format: functional, cell-based; conditions: SW480, 72 h
MCF7 [8] = experiment: Synergistic cytotoxicity against human MCF7 cells measured after 6 days in presence of 50 nM AZD0156 by SRB assay; format: functional, cell-based; conditions: MCF7, 144 h
NCI-H1299 [9] = experiment: Additive cytotoxicity against human NCI-H1299 cells measured in presence of 5 uM KU55933 after 2 days by SRB assay; format: functional, cell-based; conditions: NCI-H1299, 48 h
MCF7 [10] = experiment: Antagonistic cytotoxicity against human MCF7 cells measured after 2 days in presence of 5 uM KU60019 by SRB assay; format: functional, cell-based; conditions: MCF7, 48 h
SW480 [11] = experiment: Cytotoxicity against human SW480 cells measured after 9 days in presence of 5 uM 2(((24(2,4-dichlorobenzyl)oxy)naphthalen-1-yl)methyl)amino)ethan-1-ol by SRB assay; format: functional, cell-based; conditions: SW480, 216 h
MCF7 [12] = experiment: Antagonistic cytotoxicity against human MCF7 cells measured after 2 days in presence of 5 uM KU55933 by SRB assay; format: functional, cell-based; conditions: MCF7, 48 h
NCI-H1299 [13] = experiment: Synergistic cytotoxicity against human NCI-H1299 cells measured in presence of 5 uM KU60019 after 6 days by SRB assay; format: functional, cell-based; conditions: NCI-H1299, 144 h
SW480 [14] = experiment: Antagonistic cytotoxicity against human SW480 cells measured after 3 days in presence of 5 uM KU55933 by SRB assay; format: functional, cell-based; conditions: SW480, 72 h
NCI-H1299 [15] = experiment: Synergistic cytotoxicity against human NCI-H1299 cells measured in presence of 50 nM AZD0156 after 6 days by SRB assay; format: functional, cell-based; conditions: NCI-H1299, 144 h
MCF7 [16] = experiment: Antagonistic cytotoxicity against human MCF7 cells measured after 2 days in presence of 50 nM AZD0156 by SRB assay; format: functional, cell-based; conditions: MCF7, 48 h
MCF7 [17] = experiment: Antagonistic cytotoxicity against human MCF7 cells assessed as combination index measured after 2 days in presence of 5 uM KU55933 by SRB assay; format: functional; conditions: time 2 day
SW480 [18] = experiment: Additive cytotoxicity against human SW480 cells measured after 9 days in presence of 5 uM KU55933 by SRB assay; format: functional, cell-based; conditions: SW480, 216 h
SW480 [19] = experiment: Additive cytotoxicity against human SW480 cells assessed as combination index measured after 9 days in presence of 5 uM KU55933 by SRB assay; format: functional; conditions: time 9 day
MCF7 [20] = experiment: Synergistic cytotoxicity against human MCF7 cells assessed as combination index measured after 6 days in presence of 50 nM AZD0156 by SRB assay; format: functional; conditions: time 6 day
SW480 [21] = experiment: Antagonistic cytotoxicity against human SW480 cells assessed as combination index measured after 3 days in presence of 5 uM 2(((24(2,4-dichlorobenzyl)oxy)naphthalen-1-yl)methyl)amino)ethan-1-ol by SRB assay; format: functional; conditions: time 3 day
MCF7 [22] = experiment: Antagonistic cytotoxicity against human MCF7 cells measured after 2 days in presence of 5 uM 2(((24(2,4-dichlorobenzyl)oxy)naphthalen-1-yl)methyl)amino)ethan-1-ol by SRB assay; format: functional, cell-based; conditions: MCF7, 48 h
NCI-H1299 [23] = experiment: Additive cytotoxicity against human NCI-H1299 cells assessed as combination index measured in presence of 5 uM KU55933 after 2 days by SRB assay; format: functional; conditions: time 2 day
MCF7 [24] = experiment: Antagonistic cytotoxicity against human MCF7 cells assessed as combination index in presence of 10 uM 3-Chloro-4-methoxy-N-((4-(oxazolo[4,5-b]pyridin-2-yl)phenyl)carbamothioyl)benzamide measured after 6 days by SRB assay; format: functional; conditions: time 6 day
SW480 [25] = experiment: Synergistic cytotoxicity against human SW480 cells assessed as combination index measured after 9 days in presence of 50 nM AZD0156 by SRB assay; format: functional; conditions: time 9 day
NCI-H1299 [26] = experiment: Cytotoxicity against human NCI-H1299 cells measured in presence of 5 uM 2(((2-(2,4-dichlorobenzyl)oxy)naphthalen-1-yl)methyl)amino)ethan-1-ol after 2 days by SRB assay; format: functional, cell-based; conditions: NCI-H1299, 48 h
NCI-H1299 [27] = experiment: Synergistic cytotoxicity against human NCI-H1299 cells assessed as combination index measured in presence of 5 uM KU60019 after 6 days by SRB assay; format: functional; conditions: time 6 day
SW480 [28] = experiment: Synergistic cytotoxicity against human SW480 cells measured after 9 days in presence of 5 uM KU60019 by SRB assay; format: functional, cell-based; conditions: SW480, 216 h
MCF7 [29] = experiment: Antagonistic cytotoxicity against human MCF7 cells assessed as combination index measured after 2 days in presence of 50 nM AZD0156 by SRB assay; format: functional; conditions: time 2 day
SW480 [30] = experiment: Antagonistic cytotoxicity against human SW480 cells assessed as combination index measured after 3 days in presence of 5 uM KU60019 by SRB assay; format: functional; conditions: time 3 day
SW480 [31] = experiment: Synergistic cytotoxicity against human SW480 cells assessed as combination index measured after 9 days in presence of 5 uM KU60019 by SRB assay; format: functional; conditions: time 9 day
SW480 [32] = experiment: Synergistic cytotoxicity against human SW480 cells measured after 9 days in presence of 50 nM AZD0156 by SRB assay; format: functional, cell-based; conditions: SW480, 216 h
NCI-H1299 [33] = experiment: Additive cytotoxicity against human NCI-H1299 cells assessed as combination index measured in presence of 5 uM KU55933 after 6 days by SRB assay; format: functional; conditions: time 6 day
MCF7 [34] = experiment: Antagonistic cytotoxicity against human MCF7 cells assessed as combination index measured after 2 days in presence of 5 uM 2(((24(2,4-dichlorobenzyl)oxy)naphthalen-1-yl)methyl)amino)ethan-1-ol by SRB assay; format: functional; conditions: time 2 day
MCF7 [35] = experiment: Synergistic cytotoxicity against human MCF7 cells assessed as combination index in presence of 10 uM 3-Chloro-4-methoxy-N-((4-(oxazolo[4,5-b]pyridin-2-yl)phenyl)carbamothioyl)benzamide measured after 2 days by SRB assay; format: functional; conditions: time 2 day
SW480 [36] = experiment: Antagonistic cytotoxicity against human SW480 cells measured after 9 days in presence of 3-Chloro-4-methoxy-N-((4-(oxazolo[4,5-b]pyridin-2-yl)phenyl)carbamothioyl)benzamide by SRB assay; format: functional, cell-based; conditions: time 9.0 day
NCI-H1299 [37] = experiment: Additive cytotoxicity against human NCI-H1299 cells measured in presence of 5 uM KU55933 after 6 days by SRB assay; format: functional, cell-based; conditions: NCI-H1299, 144 h
MCF7 [38] = experiment: Antagonistic cytotoxicity against human MCF7 cells in presence of 10 uM 3-Chloro-4-methoxy-N-((4-(oxazolo[4,5-b]pyridin-2-yl)phenyl)carbamothioyl)benzamide measured after 6 days by SRB assay; format: functional, cell-based; conditions: MCF7, 144 h

| SMILES | IC50 (MCF7 [1]) [nM] | CI (NCI-H1299 [2]) | IC50 (SW480 [3]) [nM] | CI (SW480 [4]) | CI (SW480 [5]) | CI (MCF7 [6]) | IC50 (SW480 [7]) [nM] | IC50 (MCF7 [8]) [nM] | IC50 (NCI-H1299 [9]) [nM] | IC50 (MCF7 [10]) [nM] | IC50 (SW480 [11]) [nM] | IC50 (MCF7 [12]) [nM] | IC50 (NCI-H1299 [13]) [nM] | IC50 (SW480 [14]) [nM] | IC50 (NCI-H1299 [15]) [nM] | IC50 (MCF7 [16]) [nM] | CI (MCF7 [17]) | IC50 (SW480 [18]) [nM] | CI (SW480 [19]) | CI (MCF7 [20]) | other results |
| --- | --- | --- | --- | --- | --- | --- | --- | --- | --- | --- | --- | --- | --- | --- | --- | --- | --- | --- | --- | --- | --- |
| COc1cc([C@@H]2c3cc4c(cc3[C@@H](O[C@@H]3O[C@@H]5CO[C@@H](C)O[C@H]5[C@H](O)[C@H]3O)[C@H]3COC(=O)[C@H]23)OCO4)cc(OC)c1O [ETOPOSIDE] | 660 | 0.39 | 3600 | 1.3 | 1.4 | 4.2 | 3800 | 110 | 9370 | 87400 | 70 | 58800 | 230 | 3500 | 240 | 62700 | 2.7 | 80 | 0.95 | 0.19 | CI (SW480 [21]): 2; IC50 (MCF7 [22]): 46200 nM; CI (NCI-H1299 [23]): 0.98; CI (MCF7 [24]): 1.16; CI (SW480 [25]): 0.17; IC50 (NCI-H1299 [26]): 11100 nM; CI (NCI-H1299 [27]): 0.77; IC50 (SW480 [28]): < 10 nM; CI (MCF7 [29]): 2.8; CI (SW480 [30]): 1.7; CI (SW480 [31]): 0.22; IC50 (SW480 [32]): < 10 nM; CI (NCI-H1299 [33]): 0.91; CI (MCF7 [34]): 2.8; CI (MCF7 [35]): 0.84; Activity (SW480 [36]): Active; IC50 (NCI-H1299 [37]): 460 nM; IC50 (MCF7 [38]): 650 nM |
| CCc1c2c(nc3ccc(OC(=O)N4CCC(N5CCCCC5)CC4)cc13)-c1cc3c(c(=O)n1C2)COC(=O)[C@]3(O)CC [IRINOTECAN] | 1680 | 0.25 | 12400 | 2.4 | 1.6 | 1.6 | 15400 | 160 | 13100 | 38100 | 70 | 38100 | 270 | 7200 | 220 | 39200 | 1.4 | 600 | 1.02 | 0.97 | CI (SW480 [21]): 3.2; IC50 (MCF7 [22]): 42400 nM; CI (NCI-H1299 [23]): 1.1; CI (MCF7 [24]): 1.16; CI (SW480 [25]): 0.22; IC50 (NCI-H1299 [26]): 11100 nM; CI (NCI-H1299 [27]): 0.66; IC50 (SW480 [28]): < 120 nM; CI (MCF7 [29]): 1.3; CI (SW480 [30]): 3.4; CI (SW480 [31]): 0.25; IC50 (SW480 [32]): < 120 nM; CI (NCI-H1299 [33]): 1.1; CI (MCF7 [34]): 2.1; CI (MCF7 [35]): 0.78; Activity (SW480 [36]): Active; IC50 (NCI-H1299 [37]): 1670 nM; IC50 (MCF7 [38]): 1880 nM |
